Measured values from PMC7998731, “Pharmacokinetic Characterization of Supinoxin and Its Physiologically Based Pharmacokinetic Modeling in Rats” (Pharmaceutics, 2021).
Where “and” joins values, the source holds several entries; their conditions need not be identical. Equal values may be shown once. Read-outs that look alike come from different tables or passages of the source.

What was measured:
[1] = Transport of supinoxin in Caco-2 cells (bidirectional permeability); assay type: in vitro ADME; conditions: human
Experimental: The Caco-2 intestinal epithelial cell line (ATCC® HTB-37™) purchased from American Type Culture Collection (ATCC, Manassas, VA, USA) was cultured and maintained in Dulbecco’s modified Eagle medium (DMEM) containing 10% fetal bovine serum, 100 U/mL penicillin, and 0.1 mg/mL streptomycin under humidified atmosphere of air containing 5% CO2 at 37 °C. Caco-2 cells were seeded at a density of 6 × 10^4 cells/cm^2 onto polyethylene membranes of transwell plates (Corning Costar, Cambridge, MA, USA). The medium was replaced on alternate days after seeding, and cell monolayers were used for the transport assay after approximately 21 days of culture. Trans-epithelial electrical resistance (TEER) values of the Caco-2 monolayers were measured with an EVOM epithelial tissue voltmeter (World Precision Instruments, Sarasota, FL, USA), and cells with TEER greater than 300 Ω were used for the experiments. Cell monolayers were first rinsed three times with transport buffer (Hank’s balanced salt solution supplemented with 10 mM HEPES) and preincubated for 30 min at 37 °C. To measure the bidirectional transport of the compound, a transport buffer containing 1 µM supinoxin was added to the respective donor compartments (the apical and basolateral sides for absorptive and secretory transport assays, respectively). Samples (200 µL) were collected at 30, 60, 90, and 120 min, and an identical volume of fresh buffer was replenished. The samples were then subjected to LC–MS/MS analysis and concentrations of the samples were determined. After the final sampling from both compartments, we measured the TEER of the monolayers to ensure no possible adverse effects induced by the experimental procedures and then estimated the apparent permeability coefficient of supinoxin from the compound’s time-dependent accumulation (dQ/dt) in the receiver compartments using the following equation: Papp = dQ/dt × 1/(A × C0)(1) where dQ/dt is the rate of transport, A is the surface area of the filter, and C0 is the initial concentration in the donor chamber.

[2] = Determination of urinary and fecal excretion in rats; assay type: in vivo; conditions: 5 mg/kg; for Fecal excretion, Amount / Fecal excretion, Fraction Excreted (unchanged) / Urinary excretion, Amount / Urinary excretion, Fraction Excreted (unchanged): 0–48 h
Experimental: Supinoxin was administered to male SD rats (n = 3–4) at a dose of 5 mg/kg either intravenously (through the tail vein) or by oral gavage, following which rats were kept in metabolic cages and urine and feces samples were collected over the following time intervals: 0–2, 2–4, 4–6, 6–10, 10–24, 24–36, and 36–48 h for urine; 0–10, 10–24, 24–36, and 36–48 h for feces.
The metabolic cages were rinsed with distilled water, and residues were added to the urine samples at 48 h. To extract the supinoxin present in the feces, samples were homogenized with a blender mixer and shaken vigorously for 4 h with 50% methanol.
The amount of drug excreted in urine or feces (Ae) and the dose fractions excreted unchanged in urine or feces (fe) were calculated as:Ae = Cobs, urine or feces × Vurine or feces(2) fe = Ae/Dose(3)
The urinary and fecal clearances of supinoxin were calculated as:CLurine or feces = Ae, urine or feces/AUC(4)

[3] = Plasma protein binding by Rapid Equilibrium Dialysis; assay type: in vitro ADME; conditions: rat plasma
Experimental: To determine the unbound fraction of supinoxin in the plasma, a protein binding study was carried out using the Rapid Equilibrium Dialysis (RED) method. Following the manufacturer’s protocol (Thermo Fisher Scientific, San Jose, CA, USA), supinoxin was added to a plasma aliquot to produce a final concentration of 1 µg/mL. A plasma aliquot containing supinoxin (200 µL) and buffer (350 µL) was added to the sample chamber and the buffer chamber, respectively. When necessary, supinoxin was added to the microsomal incubation mixture (0.5 mg of protein per mL in potassium phosphate buffer) to produce final concentrations of 1 µM. The plate was covered and agitated on an orbital shaker at approximately 250 rpm at 37 °C. Aliquots (25 µL) of the plasma and buffer were collected at 4, 8, 18, and 24 h, and the samples were subjected to LC–MS/MS analysis. The fraction of supinoxin bound to plasma protein was estimated as follows:Percent bound (%) = [1 − (concentration in buffer/concentration in plasma)] × 100%(5)

Papp A→B at 120 min, 1 µM ([1]; Caco-2, Caco-2 cell monolayers, supinoxin 1 µM, read-out: apical to basolateral apparent permeability coefficient): 18.5 ± 2.4 ×10⁻⁶ cm/s
Papp A→B at 120 min, 1 µM ([1]; Caco-2, PBPK input parameter, Determined, read-out: Caco-2 permeability): 18.5 ×10⁻⁶ cm/s
efflux ratio at 120 min, 1 µM ([1]; Caco-2 cell monolayers): 1.24
Papp B→A at 120 min, 1 µM ([1]; Caco-2 cell monolayers, supinoxin 1 µM, read-out: basolateral to apical apparent permeability coefficient): 22.6 ± 1.8 ×10⁻⁶ cm/s
Fecal excretion, Amount ([2]; IV): 142 ± 21.6 µg
Fecal excretion, Fraction Excreted (unchanged) ([2]; IV): 16.5% and 16.5 ± 2.82%
Urinary excretion, Amount ([2]; IV): 0.27 ± 0.06 µg
Urinary excretion, Fraction Excreted (unchanged) ([2]; IV): 0.03% and 0.03 ± 0.01%
Fecal excretion, Amount ([2]; PO): 412 ± 209 µg
Fecal excretion, Fraction Excreted (unchanged) ([2]; PO): 46.8% and 46.8 ± 24.5%
Urinary excretion, Amount ([2]; PO): 0.06 ± 0.04 µg
Urinary excretion, Fraction Excreted (unchanged) ([2]; PO): 0.01% and 0.01 ± 0.01%
dose excreted ([2]; male, Sprague-Dawley (SD), rat, urine, both intravenous and oral administration, read-out: total urinary recovery of unchanged supinoxin): < 0.1%
fraction unbound at 4 h, 1 µg/mL ([3]; 1 µg/mL, 4 h incubation): 0.023 ± 0.0025
fraction unbound at 8 h, 1 µg/mL ([3]; 1 µg/mL, 8 h incubation): 0.0283 ± 0.0019
fraction unbound at 24 h, 1 µg/mL ([3]; 1 µg/mL, 24 h incubation): 0.0354 ± 0.0055
fraction unbound at 1 µg/mL ([3]; as fraction, Determined, read-out: Fraction unbound in plasma (fu)): 0.0363
Compound: COc1cc(OC)cc(N2CCN(C(=O)Nc3nc4cc(F)ccc4nc3OC)CC2)c1 [supinoxin, 1-(3,5-Dimethoxyphenyl)-4-[(6-Fluoro-2-Methoxyquinoxalin-3-yl) Aminocarbonyl] Piperazine]
